What all share (assay type): biochemical
In test [1] the target is T1, FLAG-tagged PRMT1 (Rattus norvegicus, UniProt Q63009).
T1 construct: Full-length FLAG-tagged PRMT protein; made in house; host or cells: Sf9 insect cells (baculovirus)
Briefly: Fluorescence-based in vitro PRMT assay (F-PRMT assay), PRMT1. The note with it: for Experimental result (PRMT1) / Efficacy ±Δ% (PRMT1): Table 1, n = 3; for Experimental result (PRMT1): 2 μM PRMT, vs solvent control = 100%, racemates used; for Efficacy ±Δ% (PRMT1): mean % difference of activity vs solvent control (100%), - inhibition, + activation.

The target in test [2] is T2, FLAG-tagged PRMT3 (Homo sapiens, UniProt O60678).
T2 construct: The complete ORFs of human PRMT3 and PRMT6 were inserted; made in house; host or cells: Sf9 insect cells (baculovirus)
Briefly: Fluorescence-based in vitro PRMT assay (F-PRMT assay), PRMT3. The note with it: for Experimental result (PRMT3): vs solvent control = 100%. The source says: (§1) To evaluate the effects of the selected candidate molecules on the catalytic activity of type I enzymes, we employed a quantitative fluorescence-based in vitro PRMT activity (F-PRMT) assay using recombinant FLAG-tagged PRMT proteins expressed and affinity-purified from baculovirus-infected Sf9 cells (SI Figure S1, SI Figure S2A).
(§2) Human cell lines (PaTu8988T, PANC-1) were obtained from ATCC (American Type Culture Collection) and cultured in DMEM supplemented with 10% fetal calf serum (FCS, Gibco/BRL), 1% penicillin/streptomycin at 37 °C and 5% CO2. […] For PRMT1 inhibition, cells were treated with type I PRMT inhibitor MS023 hydrochloride (Biomol). For induction of genotoxic stress, cells were treated with gemcitabine (LC Laboratories). […] The following plasmids were used: pFASTBAC-FLAG-rat PRMT1, pFASTBAC-FLAG-mouse PRMT4, and pGEX-GAR. The complete ORFs of human PRMT3 and PRMT6 were inserted into the pFASTBAC HT-3xFLAG B vector via BamHI/HindIII and BamHI/XhoI sites, respectively.
(§3) For PRMT protein expression in insect cells, recombinant baculovirus (bacmid) was generated using the Bac-to-Bac baculovirus system (Invitrogen). Sf9 cells were transfected with bacmid DNA using X-tremeGENE HP DNA transfection reagent (Sigma-Aldrich) according to the manufacturer's instructions. After 3–5 days, supernatants were collected, filtered, and used to infect Sf9 cells to amplify the virus. After 2 rounds of virus amplification and estimation of the final P3 virus titer, the P3 virus (2–5 μL/10^6 cells) was applied for large-scale infection of 200 × 10^6 Sf9 cells in suspension culture at a density of 1 × 10^6 cells/mL. Cells were harvested 5–6 days post-infection by centrifugation at 500 g for 5 min at room temperature. Protein purification from baculovirus-infected Sf9 cells was performed as previously described. , Cells were lysed in BC buffer (20 mM HEPES pH 7.9, 250 mM NaCl, 10% (v/v) glycerin, 0.4 mM EDTA, 1 mM DTT) containing a protease inhibitor cocktail (Roche) by 3 freeze-thaw cycles. After centrifugation at 11,000 rpm (Sorval SS34 rotor) and 4 °C for 1 h, the supernatant (whole cell protein extract) was incubated with anti-FLAG M2 Affinity Gel (Cytiva) at 4 °C and under agitation for 4 h. Subsequently, beads were washed in BC buffer containing various NaCl concentrations (once in BC with 1 M NaCl, twice in BC with 500 mM NaCl, twice in BC with 250 mM NaCl and twice in BC with 100 mM NaCl). FLAG-tagged proteins were either maintained bead-bound as a 50% (v/v) slurry in BC buffer with 100 mM NaCl and stored at −80 °C or were eluted in the appropriate elution buffer (depending on the subsequent assay) containing 0.25 mg/mL 3xFLAG peptides (Sigma-Aldrich) at 4 °C for 30–45 min. To remove the FLAG-peptides from the eluate, dialysis was performed in elution buffer containing 10% (v/v) glycerol at 4 °C for 4–6 h using Slide-A-Lyzer Dialysis Devices (Thermo Fisher Scientific) according to the manufacturer’s recommendations.
(§4) In the first step, the fluorogenic substrate Nα-Benzoyl-L-arginine-7-amido-4-methylcoumarin (Bz-Arg-AMC, Sigma-Aldrich) undergoes methylation by PRMTs upon the addition of the cofactor SAM. In the second reaction step, trypsin cleaves the nonmethylated substrate, leading to the generation of the 7-amino-4-methylcoumarin product, which can be quantified by subsequent fluorescence measurement (excitation: 355 nm, emission: 460 nm). The first reaction was conducted with bead-bound PRMTs at a total volume of 100 μL. Each condition was performed as a technical triplicate to determine the mean and the standard deviation. […] For the negative controls, SAM was substituted with assay buffer. The incubation was continued at 37 °C and under agitation (1,000 rpm) for a duration of 2 h.

For test [3], the target named is T3, FLAG-tagged PRMT4 (Mus musculus, UniProt Q9WVG6).
T3 construct: Full-length FLAG-tagged PRMT protein; made in house; host or cells: Sf9 insect cells (baculovirus)
T3 sequence (Q9WVG6 1-608): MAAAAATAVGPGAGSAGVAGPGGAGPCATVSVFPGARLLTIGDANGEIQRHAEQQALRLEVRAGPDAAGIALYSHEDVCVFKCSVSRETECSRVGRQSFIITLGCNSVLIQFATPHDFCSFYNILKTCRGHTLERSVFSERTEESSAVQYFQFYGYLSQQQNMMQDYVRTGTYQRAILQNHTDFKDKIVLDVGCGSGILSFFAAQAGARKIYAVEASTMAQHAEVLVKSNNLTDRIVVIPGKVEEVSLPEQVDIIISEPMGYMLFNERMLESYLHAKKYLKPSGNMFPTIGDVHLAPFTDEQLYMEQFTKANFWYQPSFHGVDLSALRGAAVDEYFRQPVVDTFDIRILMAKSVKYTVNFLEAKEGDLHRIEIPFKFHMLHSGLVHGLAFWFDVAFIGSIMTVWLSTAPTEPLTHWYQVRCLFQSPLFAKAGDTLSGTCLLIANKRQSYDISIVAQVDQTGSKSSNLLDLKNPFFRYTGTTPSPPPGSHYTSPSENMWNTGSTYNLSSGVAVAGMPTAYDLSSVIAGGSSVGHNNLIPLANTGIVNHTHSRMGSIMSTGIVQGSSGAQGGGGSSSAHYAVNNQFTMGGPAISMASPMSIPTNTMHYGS
The experiment in a line: Fluorescence-based in vitro PRMT assay (F-PRMT assay), PRMT4. The note with it: for Experimental result (PRMT4): vs solvent control = 100%; for Efficacy ±Δ% (PRMT4): mean % difference of activity vs solvent control (100%), - inhibition, + activation.
Source text: as §1, §2, §3, §4

In test [4] the target is T4, FLAG-tagged PRMT6 (Homo sapiens, UniProt Q96LA8).
T4 construct: The complete ORFs of human PRMT3 and PRMT6 were inserted; made in house; host or cells: Sf9 insect cells (baculovirus)
Briefly: Fluorescence-based in vitro PRMT assay (F-PRMT assay), PRMT6. The note with it: for Experimental result (PRMT6): vs solvent control = 100%; for Efficacy ±Δ% (PRMT6): mean % difference of activity vs solvent control (100%), - inhibition, + activation. The method, boiled down: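 Baculovirus/Sf9-expressed FLAG-PRMTs (human PRMT3, PRMT6; mouse PRMT4), anti-FLAG purified and used bead-bound, methylated Bz-Arg-AMC with SAM for 2 h at 37 °C, 1,000 rpm. Technical triplicates; no-SAM negative controls.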

Where [5] appears, read: Table 1, 100 μM compound, 2 μM PRMT, n = 3, racemates used.
The mark [6] stands for this setting: Table 1, 100 μM compound, n = 3.
[7] abbreviates: Table S3, 100 µM compound, mean % difference vs solvent control (100%), n≥3.

T1 sequence (Q63009 whole entry): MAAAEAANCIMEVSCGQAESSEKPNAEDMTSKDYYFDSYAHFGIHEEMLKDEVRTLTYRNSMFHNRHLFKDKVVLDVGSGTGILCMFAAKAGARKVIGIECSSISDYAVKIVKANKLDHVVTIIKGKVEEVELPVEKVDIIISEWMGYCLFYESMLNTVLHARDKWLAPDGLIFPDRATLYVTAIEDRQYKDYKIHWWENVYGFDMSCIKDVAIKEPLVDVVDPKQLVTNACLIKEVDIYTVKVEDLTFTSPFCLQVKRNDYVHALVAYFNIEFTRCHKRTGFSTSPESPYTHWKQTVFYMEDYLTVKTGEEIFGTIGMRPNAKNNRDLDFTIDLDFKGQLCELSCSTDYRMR
T4 sequence (Q96LA8 whole entry): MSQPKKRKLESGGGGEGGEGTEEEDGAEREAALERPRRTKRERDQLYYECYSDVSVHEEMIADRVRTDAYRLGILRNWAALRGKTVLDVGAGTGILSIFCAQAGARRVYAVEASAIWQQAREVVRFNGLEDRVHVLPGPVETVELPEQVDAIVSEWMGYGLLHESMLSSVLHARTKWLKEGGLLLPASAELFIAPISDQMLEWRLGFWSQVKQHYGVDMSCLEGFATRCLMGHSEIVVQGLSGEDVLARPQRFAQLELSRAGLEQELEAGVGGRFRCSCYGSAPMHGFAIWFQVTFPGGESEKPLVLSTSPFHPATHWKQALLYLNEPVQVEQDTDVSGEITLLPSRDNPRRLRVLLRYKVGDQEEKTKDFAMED
T2 sequence (O60678 whole entry): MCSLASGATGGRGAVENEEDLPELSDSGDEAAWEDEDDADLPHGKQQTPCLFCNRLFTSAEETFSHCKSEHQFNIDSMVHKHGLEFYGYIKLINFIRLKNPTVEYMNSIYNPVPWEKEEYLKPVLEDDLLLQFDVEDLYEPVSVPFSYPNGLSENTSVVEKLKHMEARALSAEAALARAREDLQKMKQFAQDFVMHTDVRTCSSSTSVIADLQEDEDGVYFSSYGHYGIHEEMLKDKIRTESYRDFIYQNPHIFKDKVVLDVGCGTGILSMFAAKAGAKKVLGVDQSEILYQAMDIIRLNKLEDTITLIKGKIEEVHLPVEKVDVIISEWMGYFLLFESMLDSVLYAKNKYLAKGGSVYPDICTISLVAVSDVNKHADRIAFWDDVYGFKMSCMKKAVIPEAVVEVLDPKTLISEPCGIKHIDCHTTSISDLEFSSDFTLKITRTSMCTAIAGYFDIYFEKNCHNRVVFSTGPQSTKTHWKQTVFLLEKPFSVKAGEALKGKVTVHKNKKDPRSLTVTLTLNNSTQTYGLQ

In the case of `CNC[C@H](O)COc1ccc([N+](=O)[O-])cc1Cl` (racemic) [Compound K001JS007], in test [1] (100 μM compound), the “Experimental result (PRMT1)” value is given as “PRMT1 i” and the “Efficacy ±Δ% (PRMT1)” value is reported as -30%. For the same compound, the “Experimental result (PRMT3)” value in test [2] (setting [5]) is “PRMT3 n.e. (Compounds, which did not significantly affect the catalytic activity (less than ±6% change or not significant p-value), are marked with [drawing 8] (no effect))”. The “Experimental result (PRMT4)” value in test [3] (setting [5]) was “PRMT4 i”. The “Experimental result (PRMT6)” value in test [4] (setting [5]) is reported as “PRMT6 i”.

`CNCCCNCCc1ccccc1` [Compound K001JS006]: in test [1] (100 μM compound), the “Experimental result (PRMT1)” value is “PRMT1 n.e. (Compounds, which did not significantly affect the catalytic activity (less than ±6% change or not significant p-value), are marked with [drawing 8] (no effect))”. Further, the “Experimental result (PRMT3)” value in test [2] (setting [5]) is “PRMT3 n.e. (Compounds, which did not significantly affect the catalytic activity (less than ±6% change or not significant p-value), are marked with [drawing 8] (no effect))”. The “Experimental result (PRMT4)” value in test [3] (setting [5]) is recorded as “PRMT4 i”. Moreover, in test [3] (setting [6]), the “Efficacy ±Δ% (PRMT4)” value is -10%. The “Experimental result (PRMT6)” value in test [4] (setting [5]) is “PRMT6 i”.

Take `N=C(N)NCCSCc1cccc2ccccc12` [Compound K001JS010]: in test [1] (100 μM compound), the “Experimental result (PRMT1)” value is “PRMT1 i” and the “Efficacy ±Δ% (PRMT1)” value was -20%. In addition, the “Experimental result (PRMT3)” value in test [2] (setting [5]) was “PRMT3 n.e. (Compounds, which did not significantly affect the catalytic activity (less than ±6% change or not significant p-value), are marked with [drawing 8] (no effect))”. For the same compound, the “Experimental result (PRMT4)” value in test [3] (setting [5]) was “PRMT4 n.e. (Compounds, which did not significantly affect the catalytic activity (less than ±6% change or not significant p-value), are marked with [drawing 8] (no effect))”. For the same compound, the “Experimental result (PRMT6)” value in test [4] (setting [5]) was “PRMT6 i”.

With `CNCc1cn(CC2CCN(c3ccc(C(C)=O)cn3)CC2)nn1` [Compound K002JS003], the “Experimental result (PRMT1)” value in test [1] (100 μM compound) is “PRMT1 n.e. (Compounds, which did not significantly affect the catalytic activity (less than ±6% change or not significant p-value), are marked with [drawing 8] (no effect))”. Also, in test [2] (setting [5]), the “Experimental result (PRMT3)” value was “PRMT3 n.e. (Compounds, which did not significantly affect the catalytic activity (less than ±6% change or not significant p-value), are marked with [drawing 8] (no effect))”. Further, the “Experimental result (PRMT4)” value in test [3] (setting [5]) is “PRMT4 n.e. (Compounds, which did not significantly affect the catalytic activity (less than ±6% change or not significant p-value), are marked with [drawing 8] (no effect))”. In addition, in test [4] (setting [5]), the “Experimental result (PRMT6)” value was “PRMT6 i”.

Regarding `NCC(=O)Nc1ccc(NC(=O)c2ccco2)cc1` [Compound K002JS013], the “Experimental result (PRMT1)” value in test [1] (100 μM compound) was “PRMT1 n.e. (Compounds, which did not significantly affect the catalytic activity (less than ±6% change or not significant p-value), are marked with [drawing 8] (no effect))”. Moreover, the “Experimental result (PRMT3)” value in test [2] (setting [5]) is “PRMT3 n.e. (Compounds, which did not significantly affect the catalytic activity (less than ±6% change or not significant p-value), are marked with [drawing 8] (no effect))”. The “Experimental result (PRMT4)” value in test [3] (setting [5]) is “PRMT4 i”. The “Efficacy ±Δ% (PRMT4)” value in test [3] (setting [6]) is listed as -50%. Further, the “Experimental result (PRMT6)” value in test [4] (setting [5]) is on record as “PRMT6 i”. Besides, the “Efficacy ±Δ% (PRMT6)” value in test [4] (setting [6]) is recorded as -8%.

In the case of `O=C(CC1COCCN1)N1CCC(N2CCc3ccccc3C2)CC1` (stereo not drawn) [Compound K002JS014], the “Experimental result (PRMT1)” value in test [1] (100 μM compound) is “PRMT1 n.e. (Compounds, which did not significantly affect the catalytic activity (less than ±6% change or not significant p-value), are marked with [drawing 8] (no effect))”. In addition, the “Experimental result (PRMT3)” value in test [2] (setting [5]) is “PRMT3 n.e. (Compounds, which did not significantly affect the catalytic activity (less than ±6% change or not significant p-value), are marked with [drawing 8] (no effect))”. Besides, the “Experimental result (PRMT4)” value in test [3] (setting [5]) was “PRMT4 n.e. (Compounds, which did not significantly affect the catalytic activity (less than ±6% change or not significant p-value), are marked with [drawing 8] (no effect))”. The “Experimental result (PRMT6)” value in test [4] (setting [5]) is listed as “PRMT6 i”. In addition, the “Efficacy ±Δ% (PRMT6)” value in test [4] (setting [6]) is on record as -8%.

With `O=C1NC(=O)c2ccccc2/C1=C/NCc1ccccc1` [TR-03, (Z)-4-[(Benzylamino)methylene]isoquinoline-1,3(2H,4H)-dione], the “effect on PRMT1 activity (in words)” value in test [1] (100 μM compound) was “slight inhibitory effect”. Moreover, in test [2] (Table S3, 100 µM compound, n≥3), the “Experimental result (PRMT3)” value is reported as “n.e. (did not significantly affect the catalytic activity (less than ±6% change or not significant p-value), are marked with n.e. (no effect))”. In addition, in test [3] (Table S3, 100 µM compound, n≥3), the “Experimental result (PRMT4)” value is “n.e. (did not significantly affect the catalytic activity (less than ±6% change or not significant p-value), are marked with n.e. (no effect))”. For the same compound, the “Experimental result (PRMT6)” value in test [4] (Table S3, 100 µM compound, n≥3) is recorded as “n.e. (did not significantly affect the catalytic activity (less than ±6% change or not significant p-value), are marked with n.e. (no effect))”.

Take `CN(C)Cc1cccc(N/C=C2\C(=O)NC(=O)c3ccccc32)c1` [TR-010]: the activation at 100 µM in test [1] (100 μM compound, increase over solvent-treated activity, read-out: enhancement (increase) of PRMT1 enzymatic activity) was not below 60%. In test [1] (setting [7]), the “Efficacy ±∆% (PRMT1)” value was “+75%”. Further, in test [2] (setting [7]), the “Efficacy ±∆% (PRMT3)” value is listed as “+45%”. Moreover, the “Experimental result (PRMT4)” value in test [3] (Table S3, 100 µM compound, n≥3) is “n.e. (did not significantly affect the catalytic activity (less than ±6% change or not significant p-value), are marked with n.e. (no effect))”. Moreover, the “Experimental result (PRMT6)” value in test [4] (Table S3, 100 µM compound, n≥3) is recorded as “n.e. (did not significantly affect the catalytic activity (less than ±6% change or not significant p-value), are marked with n.e. (no effect))”.

For the origin of these results see article PMC13576449, “Small-Molecule Activators of PRMT1: Discovery, SAR Analyses, and Proapoptotic Effects in Pancreatic Cancer Cells” (Journal of Medicinal Chemistry, 2026).
